The values below come from patent publication US20140057915A1, “KINASE INHIBITORS” (TOPIVERT PHARMA LIMITED, priority 2012, published 2014).

Bounds are passed on as bounds.

Data set [1] has as its system ICAM-1 expression, BEAS2B cells. Briefly: Poly I:C-induced ICAM-1 expression in BEAS2B cells. The data set is classed as cell-based. The note with it: Homo sapiens, BEAS-2B; read-out: Poly IC induced ICAM1 in BEAS2B, IC50. In a few lines: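 Cell-based ELISA for surface ICAM-1 in human BEAS2B cells 18 h after transfection with the RNA-virus mimic poly I:C (1 μg/mL, with Oligofectamine), compounds added 2 h beforehand. OD450–655 divided by Crystal Violet OD595 per well; percent inhibition relative to vehicle.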

The next data set deals with Syk (Homo sapiens, UniProt P43405). Briefly: Syk enzyme inhibition (FRET). It is filed as biochemical. The note with it: Table 4a1. A digest of the protocol:
(§1)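 Kinase activity is measured on a dual-labelled synthetic peptide by FRET. ATP is supplied as an 800 μM solution for c-Src and a 60 μM solution for Syk. Compound is tested at four added concentrations, 4 to 0.004 μg/mL.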

The test system of data set [2] is TNFα release, d-U937 cells. Briefly: LPS-induced TNFα release in d-U937 cells. It is filed as cell-based. Particulars: Homo sapiens, dU937; relative to 10 μg/mL BIRB796; Table 4c1; read-out: LPS Induced Release of Cytokine in d-U937 Cells, TNFα REC50. In a few lines:
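Sandwich ELISA quantifies cytokine in supernatants after 4 hr LPS challenge (0.1 μg/mL) of PMA-differentiated (100 ng/mL, 48–72 hr) U937 macrophages given compound 2 hr beforehand. REC50 derived from concentration-response curve, inhibition calculated relative to vehicle.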

The next data set has as its target cSrc (Homo sapiens, UniProt P12931). Briefly: c-Src enzyme inhibition (FRET). It is filed as biochemical. The note with it: Table 4a1. In a few lines:
as §1

The target in data set [3] is T1, GSK3α (Homo sapiens, UniProt P49840). Kind of data set: GSK 3α enzyme inhibition (FRET), Method 1. It is filed as biochemical. Particulars: Table 4a1. A digest of the protocol:
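Compounds are tested at added-solution levels of 4, 0.4, 0.04 or 0.004 μg/mL against GSK3α, with a 2 hr RT preincubation. Kinase reaction with FRET peptide and ATP (8 μM and 40 μM as added) runs 1 hr, and phosphorylation is judged by the protease-sensitive FRET ratio.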

The test system of the next data set is d-U937 cells. Kind of data set: Cell viability: MTT assay. The data set is classed as cell-based, human. The note with it: 1 μg/mL. A digest of the protocol:
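MTT reduction (1 h, DMSO solubilisation, A550) measured after compound treatment at 1 or 10 μg/mL of differentiated U937 cells for 4 h (5% FCS RPMI1640) or 24 h (10% FCS). Percentage viability loss computed relative to 0.5% DMSO vehicle, with increases tabulated as negative values.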

Data set [4] deals with IL-8 release, d-U937 cells. Kind of data set: LPS-induced IL-8 release in d-U937 cells. The data set is classed as cell-based. Particulars: Homo sapiens, dU937; Table 4c1; read-out: LPS Induced Release of Cytokine in d-U937 Cells, IL-8 IC50. A digest of the protocol:
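IL-8 release after a 4 hr challenge with LPS (0.1 μg/mL, E. coli 0111:B4) following a 2 hr compound pretreatment. Cells were human U937 monocytes differentiated to macrophage-type with PMA 100 ng/mL for 48–72 hr. Relative 50% effective concentration derived from concentration–response data.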

Data set [5] has as its target T1, GSK3α. Kind of data set: GSK 3α enzyme inhibition (FRET), Method 2. The data set is classed as biochemical. Particulars: Table 4a2, different laboratory.
Another data set concerns IL-8 release, PBMCs. Briefly: LPS-induced IL-8 release in PBMC cells. It is filed as cell-based. Particulars: Homo sapiens, LPS stimulated, read-out: IC50 Values for Inhibition of Cytokine Release, PBMCs, IL-8. Here is the method: (b) LPS-Induced TNFα/IL-8 Release in PBMC Cells
Peripheral blood mononuclear cells (PBMCs) from healthy subjects are separated from whole blood using a density gradient (Lymphoprep, Axis-Shield Healthcare). The PBMCs are seeded in 96 well plates and treated with compounds at the desired concentration for 2 hours before addition of 1 ng/ml LPS (Escherichia Coli 0111:B4 from Sigma Aldrich) for 24 hours under normal tissue culture conditions (37° C., 5% CO2). The supernatant is harvested for determination of […] concentrations by sandwich ELISA (Duo-set, R&D systems) and read on the fluorescence microplate reader (Varioskan® Flash, ThermoFisher Scientific).

Chain of cSrc (P12931 whole entry): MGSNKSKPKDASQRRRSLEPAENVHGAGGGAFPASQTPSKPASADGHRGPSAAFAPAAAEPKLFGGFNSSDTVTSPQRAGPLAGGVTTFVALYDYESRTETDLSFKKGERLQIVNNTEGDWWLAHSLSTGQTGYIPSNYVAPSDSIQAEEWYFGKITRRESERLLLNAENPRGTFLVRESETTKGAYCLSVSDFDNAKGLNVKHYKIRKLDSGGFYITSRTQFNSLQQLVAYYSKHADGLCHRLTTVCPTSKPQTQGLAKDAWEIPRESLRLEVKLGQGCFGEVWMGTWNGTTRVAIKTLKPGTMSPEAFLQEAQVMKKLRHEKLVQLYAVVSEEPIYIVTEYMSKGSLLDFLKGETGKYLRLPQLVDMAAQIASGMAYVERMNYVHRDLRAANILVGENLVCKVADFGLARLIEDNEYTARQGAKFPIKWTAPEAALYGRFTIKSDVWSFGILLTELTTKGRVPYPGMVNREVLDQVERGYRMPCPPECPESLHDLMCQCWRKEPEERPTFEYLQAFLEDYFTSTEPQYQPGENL
T1 sequence (P49840 whole entry): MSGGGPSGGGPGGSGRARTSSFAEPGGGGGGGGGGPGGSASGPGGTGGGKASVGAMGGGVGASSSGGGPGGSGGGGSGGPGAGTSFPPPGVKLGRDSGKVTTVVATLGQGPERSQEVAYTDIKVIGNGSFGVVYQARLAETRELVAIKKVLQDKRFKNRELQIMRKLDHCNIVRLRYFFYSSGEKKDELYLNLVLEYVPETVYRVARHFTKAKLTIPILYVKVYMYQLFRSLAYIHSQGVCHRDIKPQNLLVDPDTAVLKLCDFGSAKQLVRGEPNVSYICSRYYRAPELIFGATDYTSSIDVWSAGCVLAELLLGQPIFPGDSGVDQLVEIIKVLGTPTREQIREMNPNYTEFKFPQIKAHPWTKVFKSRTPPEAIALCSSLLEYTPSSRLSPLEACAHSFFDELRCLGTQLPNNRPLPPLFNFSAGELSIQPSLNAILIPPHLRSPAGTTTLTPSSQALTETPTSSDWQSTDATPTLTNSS

`COCCNC(=O)c1cc(Nc2nccc(Oc3ccc(NC(=O)Nc4cc(C(C)(C)C)nn4-c4ccc(C)cc4)c4ccccc34)n2)cc(OC)c1` [Example 67, 3-((4-((4-(3-(3-(tert-butyl)-1-(p-tolyl)-1H-pyrazol-5-yl)ureido)naphthalen-1-yl)oxy)pyrimidin-2-yl)amino)-5-methoxy-N-(2-methoxyethyl)benzamide]: the half-maximal inhibitory concentration (IC50) in [1] turned out to be 140 nM; against Syk, 40 nM; at cSrc it was 4 nM; against GSK3α [3], 452 nM; in data set [4], 1 nM. For the same molecule, in [2], the EC50 stood at 0.1 nM. Besides, the “Cell viability at time point in d-U937 cells, 4 h” value in the data set with d-U937 cells was “−ve (−ve and +ve indicate that the value is below and above respectively, the no significant effect threshold, defined as 30% inhibition at 1 μg/mL at the time point indicated)”. Further, the “Cell viability at time point in d-U937 cells, 24 h” value (“Cell viability at time point … 24 h” below) in the data set on d-U937 cells was “−ve (−ve and +ve indicate that the value is below and above respectively, the no significant effect threshold, defined as 30% inhibition at 1 μg/mL at the time point indicated)”.

In the case of `COc1cc(Nc2nccc(Oc3ccc(NC(=O)Nc4cc(C(C)C)nn4-c4ccc(C)cc4)c4ccccc34)n2)cc(C(=O)N(C)CCN2CCOCC2)c1` [Example 68, 3-((4-((4-(3-(3-isopropyl-1-(p-tolyl)-1H-pyrazol-5-yl)ureido)naphthalen-1-yl)oxy)pyrimidin-2-yl)amino)-5-methoxy-N-methyl-N-(2-morpholinoethyl)benzamide], the IC50 in [1] was 3.9 nM; against Syk, 2 nM; at cSrc it was below 1 nM; against GSK3α [3], 111 nM; in data set [4], 0.5 nM. Further, in data set [2], the EC50 was found to be 0.2 nM. In the data set on d-U937 cells, the “Cell viability at time point in d-U937 cells, 4 h” value was “−ve (−ve and +ve indicate that the value is below and above respectively, the no significant effect threshold, defined as 30% inhibition at 1 μg/mL at the time point indicated)”. Moreover, in the data set with d-U937 cells, the “Cell viability at time point … 24 h” value is “−ve (−ve and +ve indicate that the value is below and above respectively, the no significant effect threshold, defined as 30% inhibition at 1 μg/mL at the time point indicated)”.

Turning to `COc1cc(Nc2nccc(Oc3ccc(NC(=O)Nc4cc(C(C)C)nn4-c4ccc(C)cc4)c4ccccc34)n2)cc(C(=O)N2CCN(C)CC2)c1` [Example 69, 1-(3-isopropyl-1-(p-tolyl)-1H-pyrazol-5-yl)-3-(4-((2-((3-methoxy-5-(4-methylpiperazine-1-carbonyl)phenyl)amino)pyrimidin-4-yl)oxy)naphthalen-1-yl)urea], the IC50 in data set [1] is 7.5 nM; against Syk, 8 nM; against cSrc, 1 nM; against GSK3α [3] it was 282 nM; in [4], 0.3 nM. Also, the EC50 in data set [2] is 0.2 nM. For the same molecule, the “Cell viability at time point in d-U937 cells, 4 h” value in the data set with d-U937 cells was “−ve (−ve and +ve indicate that the value is below and above respectively, the no significant effect threshold, defined as 30% inhibition at 1 μg/mL at the time point indicated)”. Further, in the data set with d-U937 cells, the “Cell viability at time point … 24 h” value was “−ve (−ve and +ve indicate that the value is below and above respectively, the no significant effect threshold, defined as 30% inhibition at 1 μg/mL at the time point indicated)”.

`COc1ccc(Nc2nccc(Oc3ccc(NC(=O)Nc4cc(C(C)C)nn4-c4ccc(C)cc4)c4ccccc34)n2)cc1C(=O)NCCN1CCOCC1` [Example 70, 5-((4-((4-(3-(3-isopropyl-1-(p-tolyl)-1H-pyrazol-5-yl)ureido)naphthalen-1-yl)oxy)pyrimidin-2-yl)amino)-2-methoxy-N-(2-morpholinoethyl)benzamide]: the IC50 came out at 8.9 nM in [1]; 22 nM against Syk; 2 nM on cSrc; 525 nM on GSK3α [3]; 1.5 nM in [4]. In [2], the EC50 worked out at 0.6 nM. In addition, the “Cell viability at time point in d-U937 cells, 4 h” value in the data set on d-U937 cells is “−ve (−ve and +ve indicate that the value is below and above respectively, the no significant effect threshold, defined as 30% inhibition at 1 μg/mL at the time point indicated)”. The “Cell viability at time point … 24 h” value in the data set on d-U937 cells is “−ve (−ve and +ve indicate that the value is below and above respectively, the no significant effect threshold, defined as 30% inhibition at 1 μg/mL at the time point indicated)”.

`COc1cc(Nc2cc(Oc3ccc(NC(=O)Nc4cc(C(C)C)nn4-c4ccc(C)cc4)c4ccccc34)ncn2)cc(C(=O)NCCN2CCOCC2)c1` [Example 71, 3-((6-((4-(3-(3-isopropyl-1-(p-tolyl)-1H-pyrazol-5-yl)ureido)naphthalen-1-yl)oxy)pyrimidin-4-yl)amino)-5-methoxy-N-(2-morpholinoethyl)benzamide]: the IC50 was 7.3 nM in data set [1]; 547 nM on Syk; below 1 nM against cSrc; 5770 nM on GSK3α [3]; 1.9 nM in [4]. In addition, the EC50 in data set [2] was 2.7 nM. For the same molecule, the “Cell viability at time point in d-U937 cells, 4 h” value in the data set with d-U937 cells was “−ve (−ve and +ve indicate that the value is below and above respectively, the no significant effect threshold, defined as 30% inhibition at 1 μg/mL at the time point indicated)”. Further, in the data set with d-U937 cells, the “Cell viability at time point … 24 h” value is “−ve (−ve and +ve indicate that the value is below and above respectively, the no significant effect threshold, defined as 30% inhibition at 1 μg/mL at the time point indicated)”.

Take `COc1cc(Nc2cc(Oc3ccc(NC(=O)Nc4cc(C(C)(C)C)nn4-c4ccc(C)cc4)c4ccccc34)ncn2)cc(C(=O)NCCN2CCOCC2)c1` [Example 72]: the IC50 is 2.6 nM in data set [1]; 202 nM on Syk; 4 nM on cSrc; above 13000 nM against GSK3α [3]; 2.1 nM in [4]. In addition, in [2], the EC50 is 1.2 nM. In addition, the “Cell viability at time point in d-U937 cells, 4 h” value with d-U937 cells was “−ve (−ve and +ve indicate that the value is below and above respectively, the no significant effect threshold, defined as 30% inhibition at 1 μg/mL at the time point indicated)”. Also, in the data set with d-U937 cells, the “Cell viability at time point … 24 h” value was “−ve (−ve and +ve indicate that the value is below and above respectively, the no significant effect threshold, defined as 30% inhibition at 1 μg/mL at the time point indicated)”.

Turning to `C#Cc1cc(Nc2nccc(Oc3ccc(NC(=O)Nc4cc(C(C)(C)C)nn4-c4ccc(OC)nc4)c4ccccc34)n2)cc(C(=O)NCCN2CCOCC2)c1` [Example 73, 3-((4-((4-(3-(3-(tert-Butyl)-1-(6-methoxypyridin-3-yl)-1H-pyrazol-5-yl)ureido)naphthalen-1-yl)oxy)pyrimidin-2-yl)amino)-5-ethynyl-N-(2-morpholinoethyl)benzamide], the IC50 at GSK3α [5] is 402 nM; in the data set on IL-8 release, PBMCs, 0.5 nM.

As for `C#Cc1cc(Nc2nccc(Oc3ccc(NC(=O)Nc4cc(C(F)(F)C(F)(F)F)nn4-c4ccc(C)cc4)c4ccccc34)n2)cc(C(=O)NCCN2CCOCC2)c1` [Example 74, 3-Ethynyl-N-(2-morpholinoethyl)-5-((4-((4-(3-(3-(perfluoroethyl)-1-(p-tolyl)-1H-pyrazol-5-yl)ureido)naphthalen-1-yl)oxy)pyrimidin-2-yl)amino)benzamide], the half-inhibitory concentration (IC50) was at least 12100 nM on GSK3α [5] and 4.1 nM in the data set with IL-8 release, PBMCs.

Regarding `C#Cc1cc(Nc2nccc(Oc3ccc(NC(=O)Nc4cc(C(C)(C)OC)nn4-c4ccc(C)cc4)c4ccccc34)n2)cc(C(=O)NCCN2CCOCC2)c1` [Example 79, 3-Ethynyl-5-((4-((4-(3-(3-(2-methoxypropan-2-yl)-1-(p-tolyl)-1H-pyrazol-5-yl)ureido)naphthalen-1-yl)oxy)pyrimidin-2-yl)amino)-N-(2-morpholinoethyl)benzamide], the IC50 at GSK3α [5] worked out at 756 nM; in the data set on IL-8 release, PBMCs, 1.1 nM.

By IC50 is commonly meant the concentration that inhibits the measured activity by half.
